Results as given in publication PMC10419185 (International Journal of Molecular Sciences, 2023).
Where a name gives a salt, the structure may show the parent alone. Read-outs that look alike come from different tables or passages of the source.

Experiments:
[1] = tested on: RML-infected hemizygous Tg37+/- mice; conditions: mouse, in vivo; cited from earlier work
[2] = tested on: scrapie-infected mice; conditions: cited from earlier work
[3] = tested on: 263K scrapie-infected hamster cerebellar tissue slices; type: cell-based, golden hamster; conditions: for PrPSc levels, comparison of c-Abl tyrosine kinase inhibitors: 10 and 20 μM for 5 weeks (Supplementary Figure S3)
[4] = hamster, in vivo; for T1/2: male, golden
[5] = in vivo; conditions: male, hamster; for half-life / Tmax: po; for half-life: T1/2; for Kp: B/P ratio (%)
[6] = tested on: 263K scrapie strain; type: in vivo, golden hamster
[7] = tested on: 22L scrapie-infected Tga20 cerebellar tissue slices; type: cell-based, Tga20 mouse; conditions: 25 μM, slices cultured for 3 or 5 weeks
[8] = mouse, in vivo; cited from earlier work
[9] = tested on: ZW13-2-22L cells; type: cell-based, mouse
[10] = tested on: 263K scrapie strain; type: in vivo, golden hamster; conditions: 100 mg/kg IG
[11] = tested on: ZW13-2-139A cells; type: cell-based, mouse
[12] = tested on: ZW13-2, ZW13-2-22L and ZW13-2-139A cells

**Q.** For `O=C(CC(=O)c1ccccc1)c1ccccc1` [dibenzoylmethane], which survival [1] is on record?
**A.** The survival was “significantly prolong survival without reducing the PrP^Sc levels”.

**Q.** What does the source list for `Cc1ccc(NC(=O)c2ccc(CN3CCN(C)CC3)cc2)cc1Nc1nccc(-c2cccnc2)n1` [imatinib, imatinib mesylate]?
**A.** survival times of scrapie-infected mice [2]: prolongs the survival times of scrapie-infected mice; PrPSc levels, comparison of c-Abl tyrosine kinase inhibitors [3]: had no effect

**Q.** With `Cc1cn(-c2cc(NC(=O)c3ccc(C)c(Nc4nccc(-c5cccnc5)n4)c3)cc(C(F)(F)F)c2)cn1` [nilotinib, nilotinib hydrochloride monohydrate] as the compound, how does the “PrPSc levels, comparison of c-Abl tyrosine kinase inhibitors” value [3] read?
**A.** The value was “reduced PrP^Sc levels”.

**Q.** And the T1/2 ([4]; po, 60 mg/kg)?
**A.** The T1/2 was 1.4 ± 0.3 h.

**Q.** And the T1/2 ([4]; po, 100 mg/kg)?
**A.** Its T1/2 is 1.4 ± 0.7 h.

**Q.** What about the half-life ([5]; golden, 60 mg/kg) of the same compound?
**A.** Its half-life is 1 ± 0.4 h.

**Q.** What about the half-life ([5]; golden, 100 mg/kg) of the same compound?
**A.** The half-life was 1.2 ± 0.2 h.

**Q.** What does the source list for `Cc1cn(-c2cc(NC(=O)c3ccc(C)c(Nc4nccc(-c5cnccn5)n4)c3)cc(C(F)(F)F)c2)cn1` [radotinib, Radotinib hydrochloride]?
**A.** survival time, range ([6]; 30 mg/kg IG, n = 8): 140–154 dpi; mean survival time ([6]; 30 mg/kg IG, n = 8, p = 0.05848): 145.1 ± 5.3 dpi; survival time, range ([6]; 60 mg/kg IG, n = 8): 112–208 dpi; mean survival time ([6]; 60 mg/kg IG, n = 8, p = 0.03022): 161.0 ± 34.8 dpi; survival time ([6]; 100 mg/kg IG for the initial 10 weeks (10W-initial), n = 10, p = 0.0446): 149.6 ± 25.3 dpi; survival time, range ([6]; 100 mg/kg IG for the initial 10 weeks, n = 10): 112–191 dpi; survival time, range ([6]; 100 mg/kg IG once a day, 6 days a week, n = 12): 124–223 dpi; survival time ([6]; 100 mg/kg IG once a day, 6 days a week, n = 12, p = 0.00217 vs vehicle (135.1 ± 9.9)): 159.3 ± 28.6 dpi; mean survival time ([6]; 100 mg/kg IG started 4 weeks postinoculation (4W-post), n = 9, p = 0.02333): 158.0 ± 31.9 dpi; survival time, range ([6]; 100 mg/kg IG started 4 weeks postinoculation, n = 9): 126–210 dpi; mean survival time ([6]; 100 mg/kg IG started 8 weeks postinoculation (8W-post), n = 9, p = 0.08559): 146.9 ± 23.7 dpi; survival time, range ([6]; 100 mg/kg IG started 8 weeks postinoculation, n = 9): 114–181 dpi; survival times (abstract) ([6]; 100 mg/kg intragastrically, nontreated 135 ± 9.9 days): 159 ± 28.6 days; survival time, range ([6]; 200 mg/kg IG, n = 8): 112–210 dpi; mean survival time ([6]; 200 mg/kg IG, n = 8, p = 0.01944): 157.0 ± 33.9 dpi; survival time ([6]; intraperitoneal route, 10 mg/kg/day 6 days a week, n = 6, no significant difference): 155 ± 50 dpi; PrPSc propagation [7]: reduced PrP^Sc propagation; blood–brain barrier crossing [8]: effectively crosses the blood–brain barrier; PrPSc levels [9]: mild reduction in PrP^Sc levels; PrPSc levels in the brains, Western blot ([10]; hamsters sacrificed at 146 dpi): markedly decreased; PrPSc levels in the brains, Western blot ([10]; hamsters that died naturally): also high; total PrP and PK-resistant PrPSc levels in the brains, immunohistochemical staining ([10]; sacrificed on 146 dpi, compared to control-treated infected hamsters): definitely lower; PrPSc propagation ([3]; 0–40 μM for 5 weeks): reduced PrP^Sc propagation in 263K scrapie-infected hamster cerebellar tissue slices in a dose-dependent manner; PrPSc propagation, treatment in the final 2 weeks ([3]; 10 μM, final 2 weeks of 5-week culture): effectively inhibited PrP^Sc propagation; PrPSc propagation, one week of treatment ([3]; 10 μM, final one week of 5-week culture): did not reduce PrP^Sc propagation; PrPSc levels, comparison of c-Abl tyrosine kinase inhibitors [3]: reduced PrP^Sc accumulation; levels of PrPSc, later treatment ([3]; 10–40 μM, 2 weeks without drug then final 3 weeks with radotinib): dramatically reduced the levels of PrP^Sc; PrPSc levels [11]: mild reduction in PrP^Sc levels; blood–brain barrier crossing in hamsters [4]: effectively crosses the BBB in hamsters; Tmax Median (range, h) ([4]; po, 100 mg/kg): 6.0 ± 1.15 (6.0–8.0) h; Kp ([5]; golden, 60 mg/kg, AUClast): 0.137 ± 0.021; Kp ([5]; golden, 60 mg/kg, Cmax): 0.137 ± 0.023; Kp ([5]; golden, 100 mg/kg, AUClast): 0.232 ± 0.155; Kp ([5]; golden, 100 mg/kg, Cmax): 0.149 ± 0.014; Tmax ([5]; golden, 60 mg/kg): 6 h; Tmax ([5]; golden, 100 mg/kg): 6 h; half-life ([5]; golden, 100 mg/kg): 3.3 h; Kp ([5]; 60 mg/kg, AUClast): 0.137 ± 0.021; Kp ([5]; 100 mg/kg, AUClast): 0.232 ± 0.155; cell viability [12]: No decrease in viability

**Q.** Which survival [1] does the source give for `O=c1n(CCCN2CCN(c3cccc(Cl)c3)CC2)nc2ccccn12` [trazodone hydrochloride] here?
**A.** The survival was “significantly prolong survival without reducing the PrP^Sc levels”.
